Laboratory results published in patent publication US12629410B2, “Multi-antigenic peptide mimics of gonococcal lipo-oligosaccharide (LOS) epitopes” (priority 2019, dated 2026).
Entries after “also recorded” stand apart in the source; their conditions may differ. Read-outs that look alike come from different tables or passages of the source. Bridges are numbered along the chain shown (N, C = ends). Primed or numbered codes have the meaning given here. Where no end group is shown, it is not given here. [ ]: non-standard residue; d: D form. PEG2′ = two-unit polyethylene glycol spacer; PEG2″ = not defined here

Assays:
[1] = test system: LOS purified from N. gonorrhoeae strain 15253; assay type: in vivo
[2] = biological target: mAb 2C7; experiment: Inhibition ELISA: inhibition of mAb 2C7 binding to immobilized gonococcal LOS; settings: for comparative ability to inhibit mAb 2C7 binding to LOS (antigenicity): ranking within the set of peptides tested
Text: FIGS. 1A-1B show the structure and characterization of one of the peptide mimics described herein (also referred to as TMCP2). […] The 2C7 mimitope is indicated in shown as the sequence “H2C-CO-GPIPVLDENGLFAPGPC” (SEQ ID NO: 1) Cyclization is maintained through a thioether bond. The reverse peptide mimic core is represented the schematic of the peptide mimic as “Ac-β-Ala-Glu[Glu-OH]2.” The reverse peptide mimic core links to each cyclic peptide through a lysine (K) residue.
In order to compare antigenicity of peptide mimic Core Peptide 2 (monomeric cyclic CP2) and composite TMCP2 compounds with LOS that expresses the 2C7 epitope, inhibition ELISA was performed using mAb 2C7 reacted with the individual compounds to assess inhibition of binding (residual binding) of mAb to LOS by each compound. Microtiter wells were coated with LOS (80 μg/ml in PBS) purified from strain FA1090. Wells were washed and blocked with PBS-0.05% Tween 20. mAb 2C7 (0.04 μg/ml) either alone or containing monomeric cyclic peptide CP2 (1.07 to 1070 μM) or composite TMCP2 (concentrations ranging from […]) was dispended into LOS coated wells. Residual binding of 2C7 mAb was measured with anti-mouse IgG conjugated to alkaline phosphatase. Bound IgG was quantitated using a mouse IgG standard curve and percent inhibition determined compared to reaction mixtures that […].
Attempts to measure mAb 2C7 (7) binding directly to immobilized peptide mimic Core Peptide 2 (abbreviated CP2 in FIG. 1A) and composite TMCP2 by ELISA were not successful. The possibility of poor capture of the peptides by the microtiter wells was considered and therefore used an ELISA to measure inhibition of binding (residual binding) of mAb 2C7 to immobilized gonococcal LOS that had been reacted with increasing concentrations of the peptides (FIG. 1B).

[3] = earlier peptide constructs, FIG. 18 and FIG. 19

(CGPIPVLDENGLFAPGPC)4(Lys)2Lys-β-Ala-COOH [Tetra MAP 1.1]
immunogenicity in BALB/c mice (IgG against 2C7+ LOS by ELISA) ([1]; in vivo): Neither compound was superior; also recorded: elicited similar anti-LOS Ab levels as Tetra

(CH2-CO-GPIPVLDENGLFAPGPC)-K-OH ({CH2CO}-GPIPVLDENGLFAPGPCK-OH; thioether N-17; SMILES CC[C@H](C)[C@@H]1NC(=O)[C@@H]2CCCN2C(=O)CNC(=O)CSC[C@@H](C(=O)N[C@@H](CCCCN)C(=O)O)NC(=O)[C@@H]2CCCN2C(=O)CNC(=O)[C@@H]2CCCN2C(=O)[C@H](C)NC(=O)[C@H](Cc2ccccc2)NC(=O)[C@H](CC(C)C)NC(=O)CNC(=O)[C@H](CC(N)=O)NC(=O)[C@H](CCC(=O)O)NC(=O)[C@H](CC(=O)O)NC(=O)[C@H](CC(C)C)NC(=O)[C@H](C(C)C)NC(=O)[C@@H]2CCCN2C1=O) [CP2]
IC50 ([2]; mAb 2C7 0.04 μg/ml, LOS-coated wells, read-out: concentration giving 50% inhibition of mAb 2C7 binding to immobilized 15253 LOS): 107 µM

(KIPVLDENGLFAP-PEG2-KK)4-MAP4 [Tetra MAP 3.1]
immunogenicity in BALB/c mice (IgG against 2C7+ LOS by ELISA) ([1]; in vivo): poorly immunogenic

(KIPVLDENGLFAP-PEG2-KKC)4-Maleimide4-MAP4 (KIPVLDENGLFAP[PEG2″]KKC; also: four copies on a maleimide MAP4 core) [TetraMAP 3.2]
immunogenicity in BALB/c mice (IgG against 2C7+ LOS by ELISA) [1, 3]: poorly immunogenic

KIPVLDENGLFAP (SEQ ID NO: 3)-PEG2-KK (KIPVLDENGLFAP[PEG2′]KK) [Mod3]
comparative ability to inhibit mAb 2C7 binding to LOS (antigenicity) ([2]; listed as Mod 3): most antigenic

KIPVLDENGLFAP-D Lys-D Lys4-K2-K-MAP4 (not fully specified (C-terminus); also: four copies on a branched Lys (K2-K) MAP4 core) [TetraMAP 3.3]
immunogenicity in BALB/c mice (IgG against 2C7+ LOS by ELISA) [1, 3]: poorly immunogenic

KIPVLDENGLFAPAAAGGKIPVLDENGLFAP [Mod3 linear dimer #2]
comparative ability to inhibit mAb 2C7 binding to LOS (antigenicity) ([2]; listed as Mod3 linear dimer with AAAGG (SEQ ID NO: 5) linker): better than the molecule with the AG linker
immunogenicity in BALB/c mice (IgG against 2C7+ LOS by ELISA) ([1]; earlier peptide constructs, FIG. 18 and FIG. 19, listed as 16): non-immunogenic
immunogenicity in BALB/c mice (IgG against 2C7+ LOS by ELISA) ([1]; earlier peptide constructs, FIG. 18 and FIG. 19, listed as Mod3 linear dimer with AAAGG (SEQ ID NO: 5) linker): neither were immunogenic

KIPVLDENGLFAPGPC-D Lys-D Lys4-K2-K-MAP4 (not fully specified (C-terminus); also: four copies on a branched Lys (K2-K) MAP4 core) [TetraMAP 3.4]
immunogenicity in BALB/c mice (IgG against 2C7+ LOS by ELISA) [1, 3]: poorly immunogenic

KIPVLDENGLFAPGSKIPVLDENGLFAP [Mod3 linear dimer #1]
immunogenicity in BALB/c mice (IgG against 2C7+ LOS by ELISA) ([1]; earlier peptide constructs, FIG. 18 and FIG. 19, listed as 15): non-immunogenic
immunogenicity in BALB/c mice (IgG against 2C7+ LOS by ELISA) ([1]; earlier peptide constructs, FIG. 18 and FIG. 19, listed as Mod3 linear dimer with GS linker): neither were immunogenic

SGPIPVLDENGLFAPGPC)4(Lys)2Lys-β-Ala-COOH [Tetra MAP 1.2]
immunogenicity in BALB/c mice (IgG against 2C7+ LOS by ELISA) ([1]; in vivo): Neither compound was superior

[Ac-(CGPIPVLDENGLFAPGPC)-K-OH]4 (Ac-CGPIPVLDENGLFAPGPCK-OH; disulfide 1-18; also: tetrameric reverse MAP core) [TMCP3, disulfide-cyclized peptides on reverse MAP core]
comparative ability to inhibit mAb 2C7 binding to LOS (antigenicity) [2]: bound best
anti-LOS titers in immunization experiments ([1]; tetrapeptides 50 μg/dose plus Sigma MPL adjuvant, BALB/c, FIG. 10): higher anti-LOS titers than TMCP4
